# What was measured:
# [1] = tested on: Cladosporium cladosporioides; assay: Antifungal activity against Cladosporium cladosporioides after 48 hrs; type: functional
# [2] = tested on: Cladosporium sphaerospermum; assay: Antifungal activity against Cladosporium sphaerospermum after 48 hrs; type: functional
# K562 = assay: Cytotoxicity against human K562 cells after 48 hrs by MTT assay; type: functional, cell-based; conditions: K562, 48 h
# [3] = Cytotoxicity against human NALM6 cells after 48 hrs by MTT assay; type: functional, cell-based; conditions: NALM-6, 48 h
Compound,Activity [1],Activity [2],IC50 (K562),IC50 [3]
CCCCC/C=C\CCCCCCCCC(=O)C1=C(O)CCCC1=O,10 µg,25 µg,,
CCCCC/C=C\CCCCCCCCC(=O)C1=C(O)CC[C@@H](O)C1=O,1 µg,10 µg,26 µM,14.3 µM
O=C(CCCCCCCCCCCCCCCCc1ccc2c(c1)OCO2)C1=C(O)CCCC1=O,5 µg,5 µg,,
O=C(CC/C=C/c1ccccc1)C1=C(O)CCCC1=O,0.25 µg,0.25 µg,,
O=C(CCCCCCCCCCCCCCc1ccc2c(c1)OCO2)C1=C(O)CCCC1=O,5 µg,5 µg,,
O=C1CCCC(O)=C1C(=O)CCc1ccc2c(c1)OCO2,0.5 µg,0.5 µg,,
Clc1ccc(COC(Cn2ccnc2)c2ccc(Cl)cc2Cl)c(Cl)c1 (stereo not given) [MICONAZOLE],1 µg,1 µg,,
O=C(CCCCCCCC/C=C/c1ccccc1)C1=C(O)CCCC1=O,5 µg,25 µg,,
NYSTATIN,1 µg,1 µg,,

# From ChEMBL document CHEMBL3286278, “Antifungal and cytotoxic 2-acylcyclohexane-1,3-diones from Peperomia alata and P. trineura” (J Nat Prod, 2014)
